Here are results for 3 compounds from patent publication US10786525B2, “Method for treating haemorrhage, shock and brain injury” (priority 2013, dated 2020).

The structures appear in SMILES notation.

The conditions of data set [1]: oral and/or intravenous 10, 25, 50, and 100 mg/kg; cited from earlier work.
The subject of data set [2] is isolated guinea-pig mesenteric artery. The data set can be described thus: Pressure myograph relaxation of AVP-constricted mesenteric artery (Example 4). Particulars: for relaxation of intact artery: 0.001 to 1 mM, luminal or abluminal; for abluminal versus luminal relaxation: adenosine: at 10 μM and 100 μM. The procedure:
Male guinea pigs (250-300 g) were anesthetised and placed in a cradle and the abdomen opened. Second order mesenteric artery branches were isolated and mounted in a pressure myograph (see FIG. 4) under constant pressure of 60 mmHg and perfusion (luminal flow) of 100 uL/min with Krebs-Henseleit buffer (37° C.). Artery diameter was continuously measured using videomicroscopy (see FIG. 4). For the relaxation/vasodilation experiments arteries were equilibrated and then constricted with 10^−8 M arginine vasopressin (AVP). Adenosine, lidocaine or adenosine-lidocaine together were administered 2) luminally and 2) abluminally and concentration curves were obtained. Stock solutions of adenosine and lidocaine alone or adenosine-lidocaine combined were made in deionized water to 20 mM. A range of volumes were pipetted to provide contact concentrations with the vessel lumen or outer wall that ranged from 0.001 to 1 mM. At the end of experiments, arteries were dilated using calcium-free solution to obtain 100% relaxation. A number of arteries were denuded by introducing 5 ml air into the lumen with flow rate 1000 μl/min. The air outflow was then clamped until the intraluminal pressure reached 70 mmHg, flow rate was reduced to 2 μl/min and the vessel remained pressurized for 10 minutes

In the case of `NC(=O)c1ncn([C@@H]2O[C@H](CO)[C@@H](O)[C@H]2O)c1N` [Acadesine, 5-amino-4-imidazole carboxamide ribonucleoside], in data set [1], the safety in humans result is “safe in humans”.
In the case of `Nc1ncnc2c1ncn2[C@@H]1O[C@H](CO)[C@@H](O)[C@H]1O` [adenosine], in data set [2], the “relaxation with or without intact endothelium” value is on record as “relaxed the mesenteric artery in a dose dependent manner”, the “relaxation of intact artery” value was “increased relaxation” and the “abluminal versus luminal relaxation” value is “significantly more relaxation”.
For the compound `CCN(CC)CC(=O)Nc1c(C)cccc1C` [lidocaine], in data set [2], the “artery diameter in the presence of endothelium” value is listed as “did not significantly change mesenteric artery diameter”, the “relaxation of intact artery” value is on record as “failed to produce relaxation” and the “abluminal versus luminal relaxation” value is given as “no significant difference”. Further, in data set [2] (denuded), the “relaxation when endothelium was absent” value was “relaxed the artery”.
